Measurements as given in ChEMBL document CHEMBL4819119, “Design and evaluation of 1,2,3-dithiazoles and fused 1,2,4-dithiazines as anti-cancer agents” (Bioorg Med Chem Lett, 2021).

System: DU-145
Test: Cytotoxicity against human DU-145 cells
Assay type: functional, cell-based

CC(=O)O[C@@]12CO[C@@H]1C[C@H](O)[C@@]1(C)C(=O)[C@H](O)C3=C(C)[C@@H](OC(=O)[C@H](O)[C@@H](NC(=O)OC(C)(C)C)c4ccccc4)C[C@@](O)([C@@H](OC(=O)c4ccccc4)[C@H]21)C3(C)C [DOCETAXEL ANHYDROUS]
IC50: 5 nM
